One data set deals with T1, TEV protease (Tobacco etch virus, UniProt P04517).
T1 construct: TEV Protease, 0.5 μM
Put plainly: Effect of additives on TEV protease cleavage measured by fluorescence polarization. The conditions noted are these: At3g16990 in pVP15 substrate, 0.5 μM TEV protease, pH 8.0, ca. 22° C.; increasing additive concentrations. Type of data set: biochemical. The source says: The following series of Examples exemplify the efficacy of using the disclosed invention in measuring protease cleavage in the presence of various potentially interfering compounds. Briefly, each reaction comprised mixing three components: 1) a mixture of labeled and unlabeled protease substrates; 2) TEV protease; and 3) the potentially interfering additive. The results are presented graphically in FIGS. 3-14 The reaction buffer contained the following components (final concentrations noted):
Each stated additive as shown in FIGS. 3-14 was added at the stated concentrations. The TEV protease was added to each reaction last, just prior to placing the reactions into the photometer. The reactions were followed in real-time, at ambient temperature (ca. 22° C.). Fluorescence anisotropy was measured at the time points noted in FIGS. 3-14.
The following figures present the fluorescence data for each of the stated additives: FIG. 3: urea (M), FIG. 4: sucrose concentration (M), FIG. 5: sodium dodecylsulfate (SDS) (wt/vol %), FIG. 6: sodium chloride (NaCl) (M), FIG. 7: guanidium hydrochloride (M), FIG. 8: glycine concentration (wt/vol %), FIG. 9: glycerol concentration (vol/vol %), FIG. 10: ethanol concentration (vol/vol %), FIG. 11: ethylene glycol concentration (vol/vol %), FIG. 12: dimethylsulfoxide (DMSO) (vol/vol %), FIG. 13: calcium chloride (CaCl2) (M), and FIG. 14: arginine (wt/vol %).
Fluorescence anisotropy was measured using a Tecan 384 Ultra plate spectrofluorimeter. Excitation was at 485 nm (25 nm bandpass) and emission was measured at 525 nm (20 nm bandpass). Anisotropy measurements were made at 2 to 5 min intervals for 5 hours. The observed anisotropy is the sum of the anisotropy of the individual fluorescent components, or robs=Σfiri, where robs, is the observed anisotropy, fi is the fractional fluorescence intensity of component i, and ri is the anisotropy of component i. See J. Lakowicz, “Principles of fluorescence spectroscopy,” Kluwer Academic/Plenum Publishers, New York, 1999. For a two-state system with the fluorophore attached to either the intact fusion protein or to the small peptide produced by proteolysis, the fractional extent of reaction is given by ξ=(rf−robs)/(rf−rc), where rf is the fluorescence anisotropy of the intact fusion protein and rc is the fluorescence anisotropy of small peptide. This treatment assumes that there is no difference in the fluorescence intensity of the fluorophore attached to either the fusion protein or the small peptide, and this is justified by the observation that there was no significant change in total fluorescence intensity as the reactions proceeded.

The test system of data set [1] is substrate 23-F (His6-tetraCys-X-MBP). As to the kind of experiment: Fluorescence anisotropy proteolysis assay with substrate 23-F. In kind it is biochemical, E. coli. The conditions noted are these: initial rate by fluorescence anisotropy, normalized to the rate of the protease with its preferred cognate substrate. An excerpt: (§1) All protease substrates were expressed in E. coli Rosetta pLacI Rare to provide compensation for rare codons (see Kirienko et al. (2004) Biochemistry (Mosc) 69:527-535; available commercially from Novagen, a wholly-owned subsidiary of EMD Biosciences, Inc., Madison, Wis.). The expression was done in 2-L PET bottles (Millard et al. (2003) Protein Expr. Purif. 29:311-320). The protein purification followed typical IMAC purification procedures (see Sambrook & Russell, supra) including elution in an imidazole gradient from 0-350 mM. After SDS-PAGE analysis, appropriate fractions were pooled and desalted into 20 mM phosphate, pH 7.5, containing 100 mM NaCl and 0.3 mM TCEP. […]
(§2) Protease assays were conducted using a combination of 20 μM unlabeled and 40 nM labeled protease substrates unless noted otherwise. […] This decreased the amount of time between mixing and measurement to less than three minutes and allowed the fluorescence anisotropy measured at the first time point to closely approximate the anisotropy of the intact fusion protein. […]
(§3) Fluorescence anisotropy was measured using a Tecan 384 Ultra plate spectrofluorimeter. Excitation was at 485 nm (25 nm bandpass) and emission was measured at 525 nm (20 nm bandpass). […] See J. Lakowicz, “Principles of fluorescence spectroscopy,” Kluwer Academic/Plenum Publishers, New York, 1999. […]

In data set [2] the test system is substrate 25-F (His6-tetraCys-X-MBP). As to the kind of experiment: Fluorescence anisotropy proteolysis assay with substrate 25-F. In kind it is biochemical, E. coli. Conditions: for Relative rate of reaction, substrate 25F: initial rate by fluorescence anisotropy, normalized to the rate of the protease with its preferred cognate substrate; for Specific reaction rate: substrate 25-F. An excerpt:
(§4) All protease substrates were expressed in E. coli Rosetta pLacI Rare to provide compensation for rare codons (see Kirienko et al. (2004) Biochemistry (Mosc) 69:527-535; available commercially from Novagen, a wholly-owned subsidiary of EMD Biosciences, Inc., Madison, Wis.). The expression was done in 2-L PET bottles (Millard et al. (2003) Protein Expr. Purif. 29:311-320). The protein purification followed typical IMAC purification procedures (see Sambrook & Russell, supra) including elution in an imidazole gradient from 0-350 mM. After SDS-PAGE analysis, appropriate fractions were pooled and desalted into 20 mM phosphate, pH 7.5, containing 100 mM NaCl and 0.3 mM TCEP. Proteins were concentrated to a final concentration of 300-600 μM using centrifugal concentrators. Glycerol (50% v/v) was added to all protease substrates except 26-F and frozen at −20° C. The Arabidopsis targets At3g03410 (expressed from pVP14) and At3g16990 (expressed from pVP15) were flash frozen as drops in liquid nitrogen and stored at −80° C.
(§5) A 20% molar excess of the tetraCys reagent was incubated overnight (˜12 h) with protein (10-100 μg) at room temperature in 20 mM phosphate, pH 7.5, containing 100 mM NaCl, 0.3 mM TCEP, and 1 mM β-mercaptoethanol. After the labeling reaction, unincorporated fluorophore was removed by two successive cycles of 10-fold dilution and concentration using centrifugal concentrators.
(§6) Protease assays were conducted using a combination of 20 μM unlabeled and 40 nM labeled protease substrates unless noted otherwise. TEV protease reactions were conducted in 20 mM Tris-HCl, pH 8.0, containing 100 mM NaCl, 0.3 mM TCEP, 1 mM β-mercaptoethanol, and 5 mM EDTA. […] This decreased the amount of time between mixing and measurement to less than three minutes and allowed the fluorescence anisotropy measured at the first time point to closely approximate the anisotropy of the intact fusion protein. […]
Fluorescence anisotropy was measured using a Tecan 384 Ultra plate spectrofluorimeter. Excitation was at 485 nm (25 nm bandpass) and emission was measured at 525 nm (20 nm bandpass). […] The observed anisotropy is the sum of the anisotropy of the individual fluorescent components, or robs=Σfiri, where robs, is the observed anisotropy, fi is the fractional fluorescence intensity of component i, and ri is the anisotropy of component i. See J. Lakowicz, “Principles of fluorescence spectroscopy,” Kluwer Academic/Plenum Publishers, New York, 1999. For a two-state system with the fluorophore attached to either the intact fusion protein or to the small peptide produced by proteolysis, the fractional extent of reaction is given by ξ=(rf−robs)/(rf−rc), where rf is the fluorescence anisotropy of the intact fusion protein and rc is the fluorescence anisotropy of small peptide. […]

In data set [3] the test system is substrate 21-F (His6-tetraCys-X-MBP). As to the kind of experiment: Fluorescence anisotropy proteolysis assay with substrate 21-F. In kind it is biochemical, E. coli. The conditions noted are these: initial rate by fluorescence anisotropy, normalized to the rate of the protease with its preferred cognate substrate.
Text: as §1, §2, §3

The subject of data set [4] is substrate 26-F (His6-tetraCys-X-MBP). As to the kind of experiment: Fluorescence anisotropy proteolysis assay with substrate 26-F. Type of data set: biochemical, E. coli. Conditions: initial rate by fluorescence anisotropy, normalized to the rate of the protease with its preferred cognate substrate.
Text: as §1, §2, §3

Data set [5] has as its system substrate 22-F (His6-tetraCys-X-MBP). Put plainly: Fluorescence anisotropy proteolysis assay with substrate 22-F. Type of data set: biochemical, E. coli. The conditions noted are these: for Relative rate of reaction, substrate 22F: initial rate by fluorescence anisotropy, normalized to the rate of the protease with its preferred cognate substrate.
Text: as §4, §5
as §6, with “EDTA. Reactions with thrombin, enterokinase, and Factor Xa were performed in the buffer supplied by the manufacturer. Trypsin reactions were carried out in the buffer supplied for thrombin. Assays were carried out in black Cliniplate 384 well plates in a 40 μL reaction volume or in black Greiner 384 well plates using an 80 μL reaction volume.” for “EDTA.”
Fluorescence anisotropy was measured using a Tecan 384 Ultra plate spectrofluorimeter. Excitation was at 485 nm (25 nm bandpass) and emission was measured at 525 nm (20 nm bandpass). […] The observed anisotropy is the sum of the anisotropy of the individual fluorescent components, or robs=Σfiri, where robs, is the observed anisotropy, fi is the fractional fluorescence intensity of component i, and ri is the anisotropy of component i. See J. Lakowicz, “Principles of fluorescence spectroscopy,” Kluwer Academic/Plenum Publishers, New York, 1999. For a two-state system with the fluorophore attached to either the intact fusion protein or to the small peptide produced by proteolysis, the fractional extent of reaction is given by ξ=(rf−robs)/(rf−rc), where rf is the fluorescence anisotropy of the intact fusion protein and rc is the fluorescence anisotropy of small peptide. This treatment assumes that there is no difference in the fluorescence intensity of the fluorophore attached to either the fusion protein or the small peptide, and this is justified by the observation that there was no significant change in total fluorescence intensity as the reactions proceeded. […]

The subject of data set [6] is substrate 24-F (His6-tetraCys-X-MBP). As to the kind of experiment: Fluorescence anisotropy proteolysis assay with substrate 24-F. Type of data set: biochemical, E. coli. Conditions: initial rate by fluorescence anisotropy, normalized to the rate of the protease with its preferred cognate substrate.
Text: as §1, §2, §3

The mark [7] stands for this setting: reactions with cognate His6-tetraCys-X-MBP substrates.

Data on 14 molecules can be found in patent US20050227306A1, “Fluorescence polarization assay to detect protease cleavage” (priority 2003, published 2005).

T1 sequence (P04517 2038-2279): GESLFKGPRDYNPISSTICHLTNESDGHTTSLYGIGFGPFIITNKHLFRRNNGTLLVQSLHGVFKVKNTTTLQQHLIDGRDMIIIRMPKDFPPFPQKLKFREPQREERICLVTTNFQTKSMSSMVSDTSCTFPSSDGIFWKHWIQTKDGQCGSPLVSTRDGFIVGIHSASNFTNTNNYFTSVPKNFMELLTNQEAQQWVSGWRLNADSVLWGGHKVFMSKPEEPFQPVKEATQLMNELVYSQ

On to `OCC(O)CO` [glycerol], for which the “Effect of additive on fractional completion of the TEV protease cleavage reaction” value on TEV protease is “little or no effect”.
Consider `[Ca+2].[Cl-].[Cl-]` [CaCl2, calcium chloride], for which the “Effect of additive on fractional completion of the TEV protease cleavage reaction” value on TEV protease is given as “little or no effect”.
Same read-out and setting: with `Cl.N=C(N)N` [guanidium hydrochloride] the entry was “considerable inhibition”.
Take `C[S+](C)[O-]` [DMSO, dimethylsulfoxide]: the “Effect of additive on fractional completion of the TEV protease cleavage reaction” value at TEV protease is on record as “little or no effect”.
Still for that read-out and setting: as for `OCCO` [ethylene glycol], the entry is “considerable inhibition”.
As for Thrombin, the “Relative rate of reaction, substrate 23F” value in data set [1] is given as −0.02. Also, the “Relative rate of reaction, substrate 25F” value in data set [2] was 1. The Specific reaction rate in data set [2] (slope of initial rate versus protease concentration, errors two standard deviations) is 240±20 moles substrate proteolyzed per mole of protease per hour; in data set [2] (thrombin units adjusted for equivalence with enterokinase and Factor Xa unit definition), 0.20±0.02 nmole substrate proteolyzed per unit enzyme per hour. In data set [3], the “Relative rate of reaction, substrate 21F” value turned out to be 0.0. For the same molecule, the “Relative rate of reaction, substrate 26F” value in data set [4] worked out at 0.0. In data set [5], the “Relative rate of reaction, substrate 22F” value was 0.4. Besides, the “Relative rate of reaction, substrate 24F” value in data set [6] was 0.0.
On to `OC[C@H]1O[C@@](CO)(O[C@H]2O[C@H](CO)[C@@H](O)[C@H](O)[C@H]2O)[C@@H](O)[C@@H]1O` [sucrose], for which the “Effect of additive on fractional completion of the TEV protease cleavage reaction” value at TEV protease is “little or no effect”.
Same read-out and setting: as for `NC(N)=O` [urea], the entry is “considerable inhibition”; as for `[Cl-].[Na+]` [NaCl, sodium chloride], “little or no effect”.
On to “Trypsin: protease tested on tetraCys-labeled His6-tetraCys-X-MBP substrates”, for which the “Relative rate of reaction, substrate 23F” value in data set [1] is recorded as 0.1. Besides, the “Relative rate of reaction, substrate 25F” value in data set [2] is recorded as 0.5. Moreover, in data set [3], the “Relative rate of reaction, substrate 21F” value is listed as 0.3. Also, the “Relative rate of reaction, substrate 22F” value in data set [5] is 1. Further, in data set [5] (setting [7]), the “Turnover number, fold greater than for TEV protease” value is given as 10 fold and the “Turnover number, fold greater than that observed for thrombin” value amounted to 3 fold. The Specific reaction rate in data set [5] (substrate 22-F, slope of initial rate versus protease concentration, errors two standard deviations) is reported as 760±60 moles substrate proteolyzed per mole of protease per hour. Further, the “Relative rate of reaction, substrate 24F” value in data set [6] stood at 0.4.
In the case of `CCCCCCCCCCCCOS(=O)(=O)[O-].[Na+]` [SDS, sodium dodecylsulfate], the “Effect of additive on fractional completion of the TEV protease cleavage reaction” value on TEV protease was “considerable inhibition”.
Regarding `CCO` [ethanol], the “Effect of additive on fractional completion of the TEV protease cleavage reaction” value on TEV protease is “considerable inhibition”.
Turning to `NCC(=O)O` [glycine], at TEV protease, the “Effect of additive on fractional completion of the TEV protease cleavage reaction” value is reported as “little or no effect”.
On to `N=C(N)NCCC[C@H](N)C(=O)O` [arginine], for which the “Effect of additive on fractional completion of the TEV protease cleavage reaction” value at TEV protease was “considerable inhibition”.
